Results from patent US12622974B2, “Siderophore-dihydrofolate reductase inhibitor conjugate and application thereof” (priority 2020, dated 2026).
In brackets after ≈: the same amount, converted by molar mass. *1 amine or outer side, *2 acyl side, *3 side chain or, on linkers, in order; H or OH if unused. Where a SMILES comes first, the peptide text is derived from it. [ ]: non-standard residue; d: D form. The star is where a group is joined. DAMPA = CN(Cc1cnc2nc(N)nc(N)c2n1)c1ccc(C(=O)*)cc1; Orn(N5-OH,N5-Ac) = CC(=O)N(O)CCC[C@H](N)C(=O)O; d(γGlu) = O=C(O)[C@@H](CCC(=O)[*:2])N[*:1]; Ethylenediamine = C(CN[*:2])N[*:1]

Tests used:
[1] = Cytotoxicity test, MTT colorimetric method, L02; format: cell-based; conditions: human
Experimental: (§1) The cytotoxicity test was carried out with the MTT colorimetric method. 5×10^3 cells in a logarithmic growth phase were inoculated in each well of a 96-well plate, and incubated overnight at 37° C. in an incubator (5% CO2). Then, different concentrations of compounds were added and the incubation further continued for 72 hours. Finally, 10 μL of MTT solution was added to each well and he incubation further continued for 4 hours. Then, the culture medium in each well was carefully aspirated. 100 μL of dimethyl sulfoxide was added to each well, and shaken at low speed for 10 minutes on a shaker to fully dissolve crystals. The absorbance of each well was measured at OD490 nm of the enzyme-linked immunometric meter. Three parallel measurements were designed for each group, in order to calculate the standard deviation. Cell survival rate=(compound-treated OD value−blank control OD value)/(normal control OD value−blank control OD value)*100%
(§2) The toxicity of each compound was tested by measuring the half inhibitory concentrations (IC50) with respect to human normal hepatocytes (L02), human umbilical vein endothelial cells (HUVEC) and human renal epithelial cells (293T), respectively.

[2] = Cytotoxicity test, MTT colorimetric method, 293T; format: cell-based; conditions: human
Experimental: as §1, §2

[3] = system: clinical Streptococcus pneumoniae; assay: MIC determination on Streptococcus pneumoniae by the microdilution broth method; format: cell-based; conditions: MH broth II with horse blood and 2,2-bipyridine, 16-18 hours; for MIC against Streptococcus pneumoniae 180918016-S27: clinical strain 180918016-S27; for MIC against Streptococcus pneumoniae 180918017-S28: clinical strain 180918017-S28
Experimental: The minimum inhibitory concentration (MIC) determination was performed in accordance with the standards of the American Association for Clinical and Laboratory Standards (CLSIM07). The MIC determination on Streptococcus pneumoniae was carried out by the microdilution broth method as follows. First, the compound to be tested was dissolved in water to prepare a high-concentration original solution, and then the compound original solution was sequentially diluted by 2 folds, a total of 10 times, to prepare 11 samples of 10× working solution. Then the gradient dilutions of the compound were transferred to a 96-well round bottom plate, the first to eleventh wells contained 10 μL of the 11 samples of 10× working solution prepared above, respectively, and 10 μL of water was added to the twelfth well as a solvent control.

[4] = system: human normal hepatocytes, human umbilical vein endothelial cells and human renal epithelial cells; assay: Cytotoxicity test, overall statement across the three normal human cell types; format: cell-based; conditions: L02, HUVEC and 293T; compared with methotrexate
Experimental: as §1, §2

[5] = Cytotoxicity test, MTT colorimetric method, HUVEC; format: cell-based; conditions: human
Experimental: as §1, §2

[6] = system: Enterococcus; conditions: cited from earlier work
[7] = system: Streptococcus pneumoniae; conditions: background statement; cited from earlier work

| Structure (SMILES) | IC50 at 72 h [1] [µM] | IC50 at 72 h [2] [µM] | MIC against Streptococcus pneumoniae 180918016-S27 [3] | MIC against Streptococcus pneumoniae 180918017-S28 [3] | Toxicity to normal human cells (in words) [4] | IC50 at 72 h [5] [µM] | IC50 at 72 h ([1]; L02 cells (human normal hepatocytes), L02 cells, MTT, 72 hours, read-out: Cytotoxicity IC50 L02) [µM] | IC50 at 72 h ([2]; 293T cells (human renal epithelial cells), 293T cells, MTT, 72 hours, read-out: Cytotoxicity IC50 293T) [µM] | MIC against Enterococcus [6] [µM] | IC50 at 72 h ([5]; HUVEC (human umbilical vein endothelial cells), HUVEC cells, MTT, 72 hours, read-out: Cytotoxicity IC50 HUVEC) [µM] | MIC against Streptococcus pneumoniae [7] [µM] |
| --- | --- | --- | --- | --- | --- | --- | --- | --- | --- | --- | --- |
| CC(=O)N(O)CCC[C@H](NC(=O)[C@H](CCCN(O)C(C)=O)NC(=O)[C@@H](N)CCCN(O)C(C)=O)C(=O)NCCCCCNC(=O)CC[C@@H](NC(=O)c1ccc(N(C)Cc2cnc3nc(N)nc(N)c3n2)cc1)C(=O)O [3-4b] | 34.6 ± 14.5 | 8.82 ± 0.08 | 0.0625 | <0.0078 | least toxicity | 31 ± 3.18 | – | – | – | – | – |
| CC(=O)N(O)CCC[C@H](NC(=O)[C@H](CCCN(O)C(C)=O)NC(=O)[C@@H](N)CCCN(O)C(C)=O)C(=O)NCCOCCOCCNC(=O)CC[C@@H](NC(=O)c1ccc(N(C)Cc2cnc3nc(N)nc(N)c3n2)cc1)C(=O)O [3-4c] | 5.46 ± 2.18 | 2.66 ± 0.01 | <0.0078 | <0.0078 | – | 4.52 ± 0.21 | – | – | – | – | – |
| CC(=O)N(O)CCC[C@H](NC(=O)[C@H](CCCN(O)C(C)=O)NC(=O)[C@@H](N)CCCN(O)C(C)=O)C(=O)N[C@@H](CO)C(=O)NCCNC(=O)CC[C@@H](NC(=O)c1ccc(N(C)Cc2cnc3nc(N)nc(N)c3n2)cc1)C(=O)O [3-4f] (H-[Orn(N5-OH,N5-Ac)][Orn(N5-OH,N5-Ac)][Orn(N5-OH,N5-Ac)]S-{Ethylenediamine-d(γGlu)-DAMPA}) | 14.7 ± 1.7 | 3.93 ± 0.03 | <0.0078 | <0.0078 | – | 19.2 ± 0.54 | – | – | – | – | – |
| CC(=O)N(O)CCC[C@H](NC(=O)[C@H](CCCN(O)C(C)=O)NC(=O)[C@@H](N)CCCN(O)C(C)=O)C(=O)NCCNC(=O)[C@H](CO)NC(=O)[C@H](CO)NC(=O)CC[C@@H](NC(=O)c1ccc(N(C)Cc2cnc3nc(N)nc(N)c3n2)cc1)C(=O)O [3-4g] | 27 ± 2.88 | 5.38 ± 0.65 | <0.0078 | <0.0078 | least toxicity | 18.4 ± 1.82 | – | – | – | – | – |
| CC(=O)N(O)CCC[C@H](NC(=O)[C@H](CCCN(O)C(C)=O)NC(=O)[C@@H](N)CCCN(O)C(C)=O)C(=O)NCCNC(=O)[C@H](CCCCN)NC(=O)CC[C@@H](NC(=O)c1ccc(N(C)Cc2cnc3nc(N)nc(N)c3n2)cc1)C(=O)O [3-4h] | 34.5 ± 4.01 | 10.6 ± 1.34 | – | – | least toxicity | 16.6 ± 2 | – | – | – | – | – |
| CC(=O)N(O)CCCC[C@H](NC(=O)[C@H](CCCCN(O)C(C)=O)NC(=O)[C@@H](N)CCCCN(O)C(C)=O)C(=O)NCCOCCOCCNC(=O)CC[C@H](NC(=O)c1ccc(N(C)Cc2cnc3nc(N)nc(N)c3n2)cc1)C(=O)O [3-4v] | – | – | <0.0078 | <0.0078 | – | – | – | – | – | – | – |
| CCC(=O)N(O)CCCC[C@H](NC(=O)[C@H](CCCCN(O)C(=O)CC)NC(=O)[C@@H](N)CCCCN(O)C(=O)CC)C(=O)NCCOCCOCCNC(=O)CC[C@H](NC(=O)c1ccc(N(C)Cc2cnc3nc(N)nc(N)c3n2)cc1)C(=O)O [3-4x] | – | – | <0.0078 | <0.0078 | – | – | – | – | – | – | – |
| CN(Cc1cnc2nc(N)nc(N)c2n1)c1ccc(C(=O)N[C@@H](CCC(=O)O)C(=O)O)cc1 [Methotrexate, reference compound] | – | – | 0.125 | 0.03125 | – | – | 0.01 | 0.01 | 4 (≈ 1.82 µg/mL) | < 0.0781 | 0.5 (≈ 0.227 µg/mL) |
| CN[C@H](CC(C)C)C(=O)N[C@H]1C(=O)N[C@@H](CC(N)=O)C(=O)N[C@H]2C(=O)N[C@H]3C(=O)N[C@H](C(=O)N[C@H](C(=O)O)c4cc(O)cc(O)c4-c4cc3ccc4O)[C@H](O)c3ccc(c(Cl)c3)Oc3cc2cc(c3O[C@@H]2O[C@H](CO)[C@@H](O)[C@H](O)[C@H]2O[C@H]2C[C@](C)(N)[C@H](O)[C@H](C)O2)Oc2ccc(cc2Cl)[C@H]1O [Vancomycin, reference compound] | – | – | 0.25 | 0.125 | – | – | – | – | – | – | – |
